PubChem BioAssay AID1918993 (Molecular Pharmacology Branch, DTP, NCI, 2023)

Test system: 233499-124-R-J3-PDC complex spheroid growth
Assay: Anticancer human tumor 233499-124-R-J3-PDC patient-derived colon adenocarcinoma cell line growth inhibition [AhR]
Settings: for IC50: curve of first compound; for viability, T/C: stronger effect = lower value
How it was run: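 Spheroids combined tumor cells with HUVEC endothelial cells and human MSCs as stroma. AhR antagonists were paired with standard or investigational drugs, each dosed in half-log steps down from near clinical Cmax, or from 10 microM where Cmax was unknown.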
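Note: spheroids exposed to agents for seven days before reading.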

Cn1ncnc1C1c2n[nH]c(=O)c3cc(F)cc(c23)NC1c1ccc(F)cc1 (stereo not given) + Cc1cncc(-c2nc(NCCc3c[nH]c4ccccc34)c3ncn(C(C)C)c3n2)c1
IC50 (second compound 0.1 µM): > 100 nM | IC50 (second compound 0.316 µM): > 100 nM | IC50 (second compound 1 µM): > 100 nM | IC50 (second compound 3.16 µM): > 100 nM | IC50 (second compound 10 µM): < 0.316 nM | viability, T/C (second compound 0.1 µM, first compound 0.000316 µM): 93.4% | viability, T/C (second compound 0.1 µM, first compound 0.001 µM): 97.3% | viability, T/C (second compound 0.1 µM, first compound 0.00316 µM): 109% | viability, T/C (second compound 0.1 µM, first compound 0.01 µM): 108% | viability, T/C (second compound 0.1 µM, first compound 0.0316 µM): 88.7% | viability, T/C (second compound 0.1 µM, first compound 0.1 µM): 101% | viability, T/C (second compound 0.316 µM, first compound 0.000316 µM): 88.7% | viability, T/C (second compound 0.316 µM, first compound 0.001 µM): 81.3% | viability, T/C (second compound 0.316 µM, first compound 0.00316 µM): 93.5% | viability, T/C (second compound 0.316 µM, first compound 0.01 µM): 87.3% | viability, T/C (second compound 0.316 µM, first compound 0.0316 µM): 78.3% | viability, T/C (second compound 0.316 µM, first compound 0.1 µM): 96.2% | viability, T/C (second compound 1 µM, first compound 0.000316 µM): 79.4% | viability, T/C (second compound 1 µM, first compound 0.001 µM): 75.9% | viability, T/C (second compound 1 µM, first compound 0.00316 µM): 78.8% | viability, T/C (second compound 1 µM, first compound 0.01 µM): 78% | viability, T/C (second compound 1 µM, first compound 0.0316 µM): 76.5% | viability, T/C (second compound 1 µM, first compound 0.1 µM): 91.4% | viability, T/C (second compound 3.16 µM, first compound 0.000316 µM): 84.4% | viability, T/C (second compound 3.16 µM, first compound 0.001 µM): 81.2% | viability, T/C (second compound 3.16 µM, first compound 0.00316 µM): 73.2% | viability, T/C (second compound 3.16 µM, first compound 0.01 µM): 66.6% | viability, T/C (second compound 3.16 µM, first compound 0.0316 µM): 76.1% | viability, T/C (second compound 3.16 µM, first compound 0.1 µM): 71.3% | viability, T/C (second compound 10 µM, first compound 0.000316 µM): 23.2% | viability, T/C (second compound 10 µM, first compound 0.001 µM): 13.3% | viability, T/C (second compound 10 µM, first compound 0.00316 µM): 23.2% | viability, T/C (second compound 10 µM, first compound 0.01 µM): 26.1% | viability, T/C (second compound 10 µM, first compound 0.0316 µM): 14.8% | viability, T/C (second compound 10 µM, first compound 0.1 µM): 18.6%

Nc1ncn(C2CC(O)C(CO)S2)c(=O)n1 (stereo not given) + Cc1cncc(-c2nc(NCCc3c[nH]c4ccccc34)c3ncn(C(C)C)c3n2)c1
IC50 (second compound 0.1 µM): > 300 nM | IC50 (second compound 0.316 µM): > 300 nM | IC50 (second compound 1 µM): > 300 nM | IC50 (second compound 3.16 µM): > 300 nM | IC50 (second compound 10 µM): < 0.949 nM | viability, T/C (second compound 0.1 µM, first compound 0.000949 µM): 89.6% | viability, T/C (second compound 0.1 µM, first compound 0.003 µM): 96.5% | viability, T/C (second compound 0.1 µM, first compound 0.00949 µM): 89.8% | viability, T/C (second compound 0.1 µM, first compound 0.03 µM): 93.9% | viability, T/C (second compound 0.1 µM, first compound 0.0949 µM): 103% | viability, T/C (second compound 0.1 µM, first compound 0.3 µM): 103% | viability, T/C (second compound 0.316 µM, first compound 0.000949 µM): 72.9% | viability, T/C (second compound 0.316 µM, first compound 0.003 µM): 83% | viability, T/C (second compound 0.316 µM, first compound 0.00949 µM): 86.9% | viability, T/C (second compound 0.316 µM, first compound 0.03 µM): 89.6% | viability, T/C (second compound 0.316 µM, first compound 0.0949 µM): 96.9% | viability, T/C (second compound 0.316 µM, first compound 0.3 µM): 97.1% | viability, T/C (second compound 1 µM, first compound 0.000949 µM): 77.3% | viability, T/C (second compound 1 µM, first compound 0.003 µM): 66.2% | viability, T/C (second compound 1 µM, first compound 0.00949 µM): 84.6% | viability, T/C (second compound 1 µM, first compound 0.03 µM): 85.6% | viability, T/C (second compound 1 µM, first compound 0.0949 µM): 89.1% | viability, T/C (second compound 1 µM, first compound 0.3 µM): 83.4% | viability, T/C (second compound 3.16 µM, first compound 0.000949 µM): 101% | viability, T/C (second compound 3.16 µM, first compound 0.003 µM): 94.3% | viability, T/C (second compound 3.16 µM, first compound 0.00949 µM): 97.1% | viability, T/C (second compound 3.16 µM, first compound 0.03 µM): 103% | viability, T/C (second compound 3.16 µM, first compound 0.0949 µM): 104% | viability, T/C (second compound 3.16 µM, first compound 0.3 µM): 99.4% | viability, T/C (second compound 10 µM, first compound 0.000949 µM): 8.85% | viability, T/C (second compound 10 µM, first compound 0.003 µM): 8.14% | viability, T/C (second compound 10 µM, first compound 0.00949 µM): 14.4% | viability, T/C (second compound 10 µM, first compound 0.03 µM): 16.2% | viability, T/C (second compound 10 µM, first compound 0.0949 µM): 20.1% | viability, T/C (second compound 10 µM, first compound 0.3 µM): 26.1%
